According to US10792301B2, “Therapeutic polysaccharide midi-GAGR and related materials and methods” (priority 2015, dated 2020):

Assays:
[1] = system: Rat embryonic cortical neurons; test: Neuritic atrophy caused by 4-HNE, Scholl ring analysis; type: cell-based; settings: pre-treatment 2 days (1 μM; ascorbate 100 μM), then 25 μM 4-HNE 1 day
Procedure: Rat embryonic cortical neurons were treated with mock (FIG. 11C), 1 μM HA-GAGR (high acyl gellan gum), 1 μM dextran, 100 μM ascorbate or 1 μM midi-GAGR (FIG. 13A) for 2 days and then with 25 μM 4-hydroxynonenal (4-HNE), a lipid peroxide, for 1 day. After fixation, neurons were immunostained with anti-synaptophysin antibody (green) and rhodamine-phalloidin (actin: red). Scholl ring analysis was performed.

[2] = system: Mouse cortical neurons (E17, DIV5); test: LIVE/DEAD assay, pre-treated mouse cortical neurons with 4HNE, H2O2 or Aβ42; type: cell-based; settings: pre-treatment 24 h (1 μM midi-GAGR, dextran, alginate; 0.1 μM LA-GAGR; 0.01 μM HA-GAGR)
Description: The protective effect of polysaccharides on primary cortical neurons from 4HNE, H2O2, and Aβ42 peptide (Sigma) was examined using LIVE/DEAD® Viability/Cytotoxicity Assay Kit (Life Technologies). Female pregnant mice (BALB/C, E17, Charles River Laboratories International, Inc.) or female pregnant SD rats (E17, bred in house) were anesthetized and dissected to obtain 8-9 embryos per animal. Cortical neurons were isolated from embryonic brains and differentiated on poly-L-lysine-coated coverslips in B27/neurobasal medium. For drug treatment before free radical treatment, mouse cortical neurons (5 days in vitro [DIV5.]) were treated with vehicle (H2O), 1 μM of 5 kD dextran (Sigma), alginate (Sigma), midi-GAGR, 0.01 μM of high acyl gellan gum (HA-GAGR, CPKelco Co.), or 0.1 μM of LA-GAGR for 24 h and then treated with 10 μM 4HNE or 50 μM H2O2 for 24 h, or 2 μM A[…]42 peptide for 48 h prior to viability/cytotoxicity assay. For drug co-treatment with free radicals, rat cortical neurons (DIV5) were treated with 1 μM of dextran, alginate, or midi-GAGR, 0.01 μM of HA-GAGR, or 0.1 μM of LA-GAGR along with either 10 μM 4HNE (24 h) or 2 μM Aβ42 peptide (48 h). To examine the extent to which midi-GAGR-mediated neuroprotection depends on FGFR1, rat cortical neurons (E17, DIV5) were pre-treated with 4 μM SU5402 (Sigma) for 6 h and treated with 10 μM 4HNE and either vehicle or 1 μM midi-GAGR for 24 h prior to cell viability/cytotoxicity assay. As controls, neurons were treated with SU5402, midi-GAGR, 4HNE, 4HNE plus midi-GAGR, or SU5402 plus midi-GAGR.
For cell viability/cytotoxicity measurement, neurons on glass coverslips were incubated in 1×PBS containing 2 μM calcein AM (live cells: green) and 4 μM ethidium homodimer-1 (dead cells: red) for 10 min at 37° C. Immediately thereafter, neurons were imaged by 10×objective using a fluorescence Olympus IX71 microscope (Olympus America Inc., Center Valley, Pa.) and, for the acquisition of high-quality images, using TCS SP5 multi-photon laser scanning confocal microscope.
Midi-GAGR attenuated neurite atrophy caused by free reactive radicals. It is now shown herein that midi-GAGR protect neurons from the death caused by free radical insults. The extent to which midi-GAGR protects the primary culture of rodent cortical neurons from 4HNE and H2O2 was determined. In addition to the radicals, amyloid β peptide (Aβ42) was also tested. Aβ42 peptide is a major causative factor that causes oxidative stress and neuron death. Mouse cortical neurons (E17, DIV5) were treated with 10 μM 4HNE (24 h), 50 μM H2O2 (24 h), or 2 μM Aβ42 peptide (48 h) after the treatment of the neurons with vehicle (H2O), midi-GAGR (1 μM), dextran (1 μM), alginate (1 μM), LA-GAGR (0.1 μM), or HA-GAGR (0.01 μM) for 24 h. The concentrations of 4HNE, H2O2, and Aβ42 peptide were chosen according to their patho-physiological concentrations. The concentrations of LA-GAGR and HA-GAGR were chosen because, within the same volume, the total numbers of sugar units in the polysaccharides at the concentrations are close to that of 1 μM midi-GAGR. The viability of neurons was assessed using LIVE/DEAD® Viability/Cytotoxicity Assay Kit in which membrane-permeant calcein AM is cleaved by esterase in live cells, thus yielding green fluorescence, and membrane-impermeant ethidium homodimer-1 stains the nucleic acids of plasma membrane-compromised cells with red fluorescence. The numbers of green (live) and red (dead) neurons in each condition were counted using Metamorph. Although the intensities of green fluorescent signals in neurons treated with either free radicals or Aβ42 peptide were weak, the neurons were included in the counting. About 8-9% of vehicle-treated neurons died during the process of live/dead cell assay (FIGS. 23A-23F, FIGS. 24A-24C).

## dextran
[1]
  neurites in the presence of 4-HNE (neuritic atrophy): lost neuritis
[2]; 2 μM Aβ42 48 h, vehicle about 30%
  neuron death after Aβ42 peptide: did not decrease
[2]; 50 μM H2O2 24 h, vehicle ~25%
  neuron death after H2O2: did not reduce
